According to BindingDB's records for patent US9139585 (Merck Sharp & Dohme, 2015):

Molecular target: T1, ATP-sensitive inward rectifier potassium channel 1 (Homo sapiens, UniProt P48048)
T1 sequence (P48048 whole entry): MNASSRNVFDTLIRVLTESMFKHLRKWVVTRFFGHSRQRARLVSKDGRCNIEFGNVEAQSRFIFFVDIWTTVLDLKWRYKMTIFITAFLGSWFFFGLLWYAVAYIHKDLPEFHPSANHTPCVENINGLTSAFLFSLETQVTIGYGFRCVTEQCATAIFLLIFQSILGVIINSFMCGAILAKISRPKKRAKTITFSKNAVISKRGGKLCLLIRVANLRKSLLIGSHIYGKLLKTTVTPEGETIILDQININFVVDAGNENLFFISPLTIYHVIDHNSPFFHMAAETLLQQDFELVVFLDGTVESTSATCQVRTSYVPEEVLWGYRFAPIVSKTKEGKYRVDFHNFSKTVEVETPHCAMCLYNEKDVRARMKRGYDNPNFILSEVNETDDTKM
Test: Electrophysiology Assay
Conditions: pH 7.4; 37 °C
Description: Chinese hamster ovary cells stably expressing Kir1.1 channels were maintained in T-75 flasks in cell culture media in a humidified 10% CO2 incubator at 37 °C. Prior to an experiment, Kir1.1 expression was induced by overnight incubation with 1 mM sodium butyrate. […] After centrifugation, the cell pellet was resuspended in approximately 4.0 ml of bath solution and placed in the IonWorks instrument. The intracellular solution consisted of (in mM): 80 K gluconate, 40 KCl, 20 KF, 3.2 MgCl2, 3 EGTA, 5 Hepes, pH 7.

IC50: 95 nM
SMILES: Cc1c([C@@H](O)CN2CCN(C[C@H](O)c3ccc4c(c3)CCS4(=O)=O)CC2)ccc2c1COC2=O [US9139585, 43B]
